Experimental data taken from ChEMBL document CHEMBL2021890, “A new class of prolylcarboxypeptidase inhibitors, part 1: discovery and evaluation” (Bioorg Med Chem Lett, 2012).

What was measured:
[1] = molecular target: T1, Lysosomal Pro-X carboxypeptidase (Mus musculus, UniProt Q7TMR0); assay: Inhibition of mouse PrCP
T1 sequence (Q7TMR0 whole entry): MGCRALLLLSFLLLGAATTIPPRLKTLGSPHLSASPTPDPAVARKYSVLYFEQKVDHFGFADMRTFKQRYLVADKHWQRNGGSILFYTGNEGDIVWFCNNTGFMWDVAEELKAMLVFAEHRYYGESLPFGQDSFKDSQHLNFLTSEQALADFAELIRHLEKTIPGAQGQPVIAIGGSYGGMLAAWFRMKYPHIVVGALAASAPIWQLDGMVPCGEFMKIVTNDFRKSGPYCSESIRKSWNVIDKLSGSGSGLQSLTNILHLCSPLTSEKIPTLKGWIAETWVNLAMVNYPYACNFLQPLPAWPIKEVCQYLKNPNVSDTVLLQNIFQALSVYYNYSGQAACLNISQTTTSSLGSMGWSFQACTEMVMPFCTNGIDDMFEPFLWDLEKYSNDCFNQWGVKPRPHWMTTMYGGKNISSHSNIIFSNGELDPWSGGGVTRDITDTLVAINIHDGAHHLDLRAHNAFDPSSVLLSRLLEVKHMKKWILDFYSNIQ

[2] = Plasma protein binding in 10% human plasma assessed as percentage unbound; format: ADME, cell-free
[3] = Plasma protein binding in 10% mouse plasma assessed as percentage unbound; format: ADME, cell-free
[4] = Metabolic stability in human liver microsomes after 30 mins by LC/MS analysis; format: ADME, Microsome; conditions: read-out: Stability
[5] = Metabolic stability in mouse liver microsomes after 30 mins by LC/MS analysis; format: ADME, Microsome; conditions: read-out: Stability
[6] = Clearance in mouse at 0.5 mg/kg, iv and 1 mg/kg, po; format: ADME, organism-based; conditions: in vivo
[7] = Volume of distribution in mouse at 0.5 mg/kg, iv and 1 mg/kg, po; format: ADME, organism-based; conditions: in vivo
[8] = Half life in mouse at 0.5 mg/kg, iv and 1 mg/kg, po; format: ADME, organism-based; conditions: in vivo
[9] = tested on: Mus musculus; assay: Dose normalized AUC in mouse at 1 mg/kg, po; format: ADME, organism-based; design: dose 1 mg/kg, route oral; conditions: in vivo
[10] = Oral bioavailability in mouse at 1 mg/kg; format: ADME, organism-based; conditions: in vivo
[11] = molecular target: Mus musculus; assay: Ex-vivo inhibition of po dosed mouse PrCP in the absence of plasma by FRET analysis; format: functional, organism-based
[12] = molecular target: Mus musculus; assay: Ex-vivo inhibition of PrCP in heat inactivated 25% plasma of po dosed mouse by FRET analysis; format: functional, organism-based
[13] = molecular target: Mus musculus; assay: Ex-vivo inhibition of PrCP in heat inactivated 100% plasma of po dosed mouse by FRET analysis; format: functional, organism-based
[14] = Drug uptake in C57 mouse plasma at 30 mg/kg, po after 20 hrs by LC/MS analysis; format: ADME, organism-based; design: dose 30 mg/kg, route oral
[15] = Drug uptake in C57 mouse brain at 30 mg/kg, po after 20 hrs by LC/MS analysis; format: ADME, organism-based; design: dose 30 mg/kg, route oral; conditions: read-out: Drug uptake
[16] = Ratio of drug level in brain to plasma in C57 mouse at 30 mg/kg, po after 20 hrs by LC/MS analysis; format: ADME, organism-based; design: dose 30 mg/kg, route oral; conditions: read-out: BPR
[17] = tested on: Mus musculus; assay: Ex-vivo inhibition of PrCP in heat inactivated 100% plasma of C57 mouse assessed as target engagement at 30 mg/kg, po after 20 hrs by FRET analysis; format: functional
[18] = tested on: Mus musculus; assay: Ex-vivo inhibition of PrCP in heat inactivated 100% plasma of C57 mouse assessed as target engagement at 30 mg/kg, po after 20 hrs calculated as [cmpd]plasma/([cmpd]plasma + Ki (heat inactivated plasma))x100; format: functional
[19] = Apparent permeability across pig LLC-PK1 cells at 1 uM; format: ADME, cell-based, Sus scrofa
[20] = Clearance in mouse at 2 mg/kg, iv and 10 mg/kg, po; format: ADME, organism-based; conditions: in vivo
[21] = Volume of distribution in mouse at 2 mg/kg, iv and 10 mg/kg, po; format: ADME, organism-based; conditions: in vivo
[22] = Half life in mouse at 2 mg/kg, iv and 10 mg/kg, po; format: ADME, organism-based; conditions: in vivo
[23] = tested on: Mus musculus; assay: Dose normalized AUC in mouse at 10 mg/kg, po; format: ADME, organism-based; design: dose 10 mg/kg, route oral; conditions: in vivo
[24] = Oral bioavailability in mouse at 10 mg/kg; format: ADME, organism-based; conditions: in vivo
[25] = Drug uptake in C57 mouse plasma at 80 mg/kg, po after 20 hrs by LC/MS analysis; format: ADME, organism-based; design: dose 80 mg/kg, route oral
[26] = Drug uptake in C57 mouse brain at 80 mg/kg, po after 20 hrs by LC/MS analysis; format: ADME, organism-based; design: dose 80 mg/kg, route oral; conditions: read-out: Drug uptake
[27] = Ratio of drug level in brain to plasma in C57 mouse at 80 mg/kg, po after 20 hrs by LC/MS analysis; format: ADME, organism-based; design: dose 80 mg/kg, route oral; conditions: read-out: BPR
[28] = tested on: Mus musculus; assay: Ex-vivo inhibition of PrCP in heat inactivated 100% plasma of C57 mouse assessed as target engagement at 80 mg/kg, po after 20 hrs by FRET analysis; format: functional
[29] = tested on: Mus musculus; assay: Ex-vivo inhibition of PrCP in heat inactivated 100% plasma of C57 mouse assessed as target engagement at 80 mg/kg, po after 20 hrs calculated as [cmpd]plasma/([cmpd]plasma + Ki (heat inactivated plasma))x100; format: functional

Row | SMILES | IC50 [1] | fraction unbound [2] | fraction unbound [3] | remaining at 0.5 h [4] | remaining at 0.5 h [5] | clearance [6] | Vd [7] | half-life [8] | AUC/dose [9] | bioavailability [10] | Ki [11] | Ki [12] | Ki [13] | also measured
1 | Cc1cc(C2CCN(C(=O)[C@@H]3CN(C(C)(C)C)C[C@H]3c3ccc(F)cc3F)CC2)n(-c2cc(Cl)ccc2Cl)n1 | 0.4 nM | 0.11 | 0.17 | 30% | 43% | 48 mL/min/kg | 13 L/kg | 174 min | 0.19 µM·kg·h/mg | 31% | 0.4 nM | 0.5 nM | 0.9 nM | concentration at 20 h [14]: 547 nM; concentration at 20 h [15]: 698 nM; Kp at 20 h [16]: 1.35; inhibition in vivo at 30 mg/kg [17]: 97.7%; inhibition in vivo at 30 mg/kg [18]: 99.8%; Papp at 1 µM [19]: 26.9 ×10⁻⁶ cm/s
2 | Cc1nc(C2CCN(C(=O)[C@@H]3CN(C(C)(C)C)C[C@H]3c3ccc(F)cc3F)CC2)n(-c2ccc(Cl)c(C)c2)n1 | 10 nM | 0.16 | 0.13 | 11% | 22% |  |  |  |  |  | 1 nM | 1.1 nM | 1.4 nM | clearance [20]: 128 mL/min/kg; Vd [21]: 17 L/kg; half-life [22]: 108 min; AUC/dose [23]: 0.05 µM·kg·h/mg; bioavailability [24]: 20%
3 | O=C([C@@H]1CNC[C@H]1c1ccc(F)cc1F)N1CCC(c2ccnn2-c2ccc(F)c(Cl)c2)CC1 | 3.7 nM | 0.12 | 0.1 | 44% | 59% | 60 mL/min/kg | 8 L/kg | 96 min | 0.16 µM·kg·h/mg | 27% | 2.9 nM | 7.7 nM | 21.9 nM | 
4 | Cc1cc(C2CCN(C(=O)[C@@H]3CN(C(C)(C)C)C[C@H]3c3ccc(F)cc3F)CC2)n(-c2ccc(Cl)cc2F)n1 | 2 nM | 0.17 | 0.21 |  |  | 51 mL/min/kg | 16 L/kg | 216 min | 0.25 µM·kg·h/mg | 43% | 1.5 nM | 2.5 nM | 5.5 nM | 
5 | Cc1nc(C2CCN(C(=O)[C@H]3CN(C(C)(C)C)C[C@@H]3c3ccc(F)cc3F)CC2)n(-c2ccc(Cl)c(C)c2)n1 | 11 nM | 0.1 | 0.19 | 29% | 6% | 127 mL/min/kg | 20 L/kg | 126 min | 0.03 µM·kg·h/mg | 13% | 3 nM | 6 nM | 15 nM | 
6 | Cc1cc(C2CCN(C(=O)[C@@H]3CN(C(C)(C)C)C[C@H]3c3ccc(F)cc3F)CC2)n(-c2ccc(F)c(F)c2)n1 | 9.1 nM | 0.25 | 0.16 | 39% | 52% | 71 mL/min/kg | 13 L/kg | 114 min | 0.2 µM·kg·h/mg | 46% | 6.4 nM | 9.3 nM | 18.3 nM | concentration at 20 h [25]: 1910 nM; concentration at 20 h [26]: 1180 nM; Kp at 20 h [27]: 0.63; inhibition in vivo at 80 mg/kg [28]: 99.4%; inhibition in vivo at 80 mg/kg [29]: 99.1%; Papp at 1 µM [19]: 28 ×10⁻⁶ cm/s
7 | Cc1cc(C2CCN(C(=O)[C@@H]3CN(C(C)(C)C)C[C@H]3c3ccc(F)cc3F)CC2)n(-c2ccc(Cl)c(Cl)c2)n1 | 1 nM | 0.02 | 0.019 | 45% | 18% | 43 mL/min/kg | 11 L/kg | 162 min | 0.26 µM·kg·h/mg | 38% | 1.7 nM | 5.9 nM | 18.4 nM | 
8 | Cc1cc(C2CCN(C(=O)[C@@H]3CN(C(C)(C)C)C[C@H]3c3ccc(F)cc3F)CC2)n(-c2ccc(Cl)cc2Cl)n1 | 1 nM | 0.1 | 0.16 | 31% | 39% | 57 mL/min/kg | 16 L/kg | 186 min | 0.31 µM·kg·h/mg | 61% | 1.1 nM | 2.3 nM | 6 nM | 
9 | Cc1cc(C2CCN(C(=O)[C@@H]3CN(C(C)(C)C)C[C@H]3c3ccc(F)cc3F)CC2)n(-c2ccc(F)c(Cl)c2)n1 | 0.8 nM | 0.16 | 0.16 | 38% | 43% | 68 mL/min/kg | 19 L/kg | 186 min | 0.26 µM·kg·h/mg | 59% | 0.9 nM | 1.3 nM | 2.5 nM | 
10 | Cc1cc(C2CCN(C(=O)[C@@H]3CNC[C@H]3c3ccc(F)cc3F)CC2)n(-c2cc(Cl)ccc2Cl)n1 | 4.4 nM | 0.12 | 0.05 |  |  | 173 mL/min/kg | 19 L/kg | 84 min | 0.04 µM·kg·h/mg | 23% | 4.2 nM | 8.9 nM | 23 nM | 
